In patent publication US20190055279A1, “NOVEL POLYPEPTIDES WITH IMPROVED PROTEOLYTIC STABILITY, AND METHODS OF PREPARING AND USING SAME” (TUFTS UNIVERSITY, priority 2015, published 2019):

Assays:
[1] = cited from earlier work
[2] = tested on: SBS patients; details: after 52 weeks of treatment; cited from earlier work
[3] = tested on: wild type mice; details: GLP-2 twice daily over ten days; GATTEX daily; cited from earlier work
[4] = target: DPP4 (Homo sapiens, UniProt P27487)
Experimental: Peptides were incubated with vehicle or recombinant DPP4. Serial dilutions of GLP2-1 and GLP2-4 were then applied to HEK293 cells, which had been transfected with cDNA encoding human GLP-2R and a cAMP-responsive reporter gene.
Peptides were incubated with recombinant DPP4. Serial dilutions of GLP-2 and GLP2-4 were then applied to HEK293 cells, which had been transfected with cDNA encoding human GLP-2R and a cAMP-responsive reporter gene. […] N=4, mean+SEM.
DPP4 resistance (FIG. 13): Lipidated peptides are compared with the prototype, F-GLP2-palm. After an overnight incubation (16 hrs) in the presence vs. the absence of DPP4, receptor mediated function is assessed as shown elsewhere herein. As a DPP4 susceptible control, parallel experiments are done using GLP-2. […] Following overnight preincubation, serial dilutions of ligands were prepared and added to GLP-2R expressing cells for 4 hours. A luciferase reporter gene assay was used to monitor Gαs coupled second messenger signaling.

[5] = target: DPP2 (Homo sapiens, UniProt Q9UHL4)
[6] = target: T1, FAP (Homo sapiens, UniProt Q12884)
T1 sequence (Q12884 1-760): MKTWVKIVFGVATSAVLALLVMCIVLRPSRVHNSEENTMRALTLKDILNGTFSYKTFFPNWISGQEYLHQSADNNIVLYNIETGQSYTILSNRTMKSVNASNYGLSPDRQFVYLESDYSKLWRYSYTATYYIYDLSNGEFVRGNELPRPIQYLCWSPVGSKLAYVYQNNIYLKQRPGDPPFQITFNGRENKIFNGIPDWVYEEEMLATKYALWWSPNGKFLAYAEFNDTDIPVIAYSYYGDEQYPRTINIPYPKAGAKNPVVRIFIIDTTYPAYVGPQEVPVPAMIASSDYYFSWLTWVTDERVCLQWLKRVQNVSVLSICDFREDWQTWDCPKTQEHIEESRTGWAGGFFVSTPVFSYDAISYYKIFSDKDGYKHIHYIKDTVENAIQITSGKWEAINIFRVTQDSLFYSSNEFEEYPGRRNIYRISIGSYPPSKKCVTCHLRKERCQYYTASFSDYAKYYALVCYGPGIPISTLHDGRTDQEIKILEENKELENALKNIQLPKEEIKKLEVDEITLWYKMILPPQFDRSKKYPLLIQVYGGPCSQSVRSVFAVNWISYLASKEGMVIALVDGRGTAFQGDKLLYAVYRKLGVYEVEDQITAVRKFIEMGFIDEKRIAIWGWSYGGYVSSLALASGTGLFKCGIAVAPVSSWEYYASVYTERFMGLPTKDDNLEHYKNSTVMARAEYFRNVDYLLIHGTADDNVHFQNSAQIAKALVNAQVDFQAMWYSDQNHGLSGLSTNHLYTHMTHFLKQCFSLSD

DPP4, sequence (P27487 whole entry, species assumed): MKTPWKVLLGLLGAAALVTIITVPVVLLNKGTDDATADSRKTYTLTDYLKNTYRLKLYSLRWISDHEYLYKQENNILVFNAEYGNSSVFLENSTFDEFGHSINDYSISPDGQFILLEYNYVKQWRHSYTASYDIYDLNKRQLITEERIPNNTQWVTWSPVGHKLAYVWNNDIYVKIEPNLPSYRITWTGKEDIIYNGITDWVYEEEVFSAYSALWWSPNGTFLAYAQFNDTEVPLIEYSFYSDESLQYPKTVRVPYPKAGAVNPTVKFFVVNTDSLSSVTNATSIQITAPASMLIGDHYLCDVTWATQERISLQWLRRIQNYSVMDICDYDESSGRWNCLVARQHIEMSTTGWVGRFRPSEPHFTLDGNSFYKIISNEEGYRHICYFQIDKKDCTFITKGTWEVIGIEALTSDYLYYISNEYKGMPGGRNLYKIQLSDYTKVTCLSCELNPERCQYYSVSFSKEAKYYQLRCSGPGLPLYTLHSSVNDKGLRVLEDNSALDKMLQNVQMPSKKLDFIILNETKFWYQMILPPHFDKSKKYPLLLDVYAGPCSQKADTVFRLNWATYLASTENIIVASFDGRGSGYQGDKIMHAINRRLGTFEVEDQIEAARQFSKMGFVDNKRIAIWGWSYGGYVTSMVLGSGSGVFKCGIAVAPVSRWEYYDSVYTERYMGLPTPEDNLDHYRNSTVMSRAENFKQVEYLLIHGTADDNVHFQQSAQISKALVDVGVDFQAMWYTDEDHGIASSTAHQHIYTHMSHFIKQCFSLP

DPP4 degradation / resistance (in words) [4]	stability to DPP2 (in words) [5]	stability to FAP (in words) [6]	Structure (SMILES)	in vivo half-life [1] [h]	SBS patients able to reduce their PN regimen by at least 1 day/week [2] [%]	patients who failed to reduce their PN regimen by even 1 day/week [2] [%]	treated patients entirely independent of PN [2]	bowel weight [3]
only partial DPP4 resistance			CC[C@H](C)[C@H](NC(=O)[C@H](Cc1ccccc1)NC(=O)[C@H](CC(=O)O)NC(=O)[C@H](CCCNC(=N)N)NC(=O)[C@H](C)NC(=O)[C@H](C)NC(=O)[C@H](CC(C)C)NC(=O)[C@H](CC(N)=O)NC(=O)[C@H](CC(=O)O)NC(=O)[C@H](CC(C)C)NC(=O)[C@@H](NC(=O)[C@@H](NC(=O)[C@H](CC(N)=O)NC(=O)[C@H](CCSC)NC(=O)[C@H](CCC(=O)O)NC(=O)[C@H](CC(=O)O)NC(=O)[C@H](CO)NC(=O)[C@H](Cc1ccccc1)NC(=O)[C@H](CO)NC(=O)CNC(=O)[C@H](CC(=O)O)NC(=O)CNC(=O)[C@@H](N)Cc1c[nH]cn1)[C@@H](C)O)[C@@H](C)CC)C(=O)N[C@@H](CC(N)=O)C(=O)N[C@@H](Cc1c[nH]c2ccccc12)C(=O)N[C@@H](CC(C)C)C(=O)N[C@H](C(=O)N[C@@H](CCC(N)=O)C(=O)N[C@H](C(=O)N[C@@H](CCCCN)C(=O)N[C@H](C(=O)N[C@H](C(=O)N[C@@H](CC(=O)O)C(=O)O)[C@@H](C)O)[C@@H](C)CC)[C@@H](C)O)[C@@H](C)CC [Gattex, teduglutide]	~3	68	32	4 of 52	significant increase in both large and small bowel weights
	major potency losses	major potency losses	CC[C@H](C)[C@H](NC(=O)[C@H](CO)NC(=O)[C@H](Cc1ccc(O)cc1)NC(=O)[C@H](CC(=O)O)NC(=O)[C@H](CO)NC(=O)[C@@H](NC(=O)[C@H](Cc1ccccc1)NC(=O)[C@@H](NC(=O)CNC(=O)[C@H](CCC(=O)O)NC(=O)[C@H](C)NC(=O)[C@@H](N)Cc1ccc(O)cc1)[C@@H](C)O)[C@@H](C)CC)C(=O)N[C@@H](C)C(=O)N[C@@H](CCSC)C(=O)N[C@@H](CC(=O)O)C(=O)N[C@@H](CCCCN)C(=O)N[C@H](C(=O)N[C@@H](Cc1c[nH]cn1)C(=O)N[C@@H](CCC(N)=O)C(=O)N[C@@H](CCC(N)=O)C(=O)N[C@@H](CC(=O)O)C(=O)N[C@@H](Cc1ccccc1)C(=O)N[C@H](C(=O)N[C@@H](CC(N)=O)C(=O)N[C@@H](Cc1c[nH]c2ccccc12)C(=O)N[C@@H](CC(C)C)C(=O)N[C@@H](CC(C)C)C(=O)N[C@@H](C)C(=O)N[C@@H](CCC(N)=O)C(=O)N[C@@H](CCCCN)C(=O)NCC(=O)N[C@@H](CCCCN)C(=O)N[C@@H](CCCCN)C(=O)N[C@@H](CC(N)=O)C(=O)N[C@@H](CC(=O)O)C(=O)N[C@@H](Cc1c[nH]c2ccccc12)C(=O)N[C@@H](CCCCN)C(=O)N[C@@H](Cc1c[nH]cn1)C(=O)N[C@@H](CC(N)=O)C(=O)N[C@H](C(=O)N[C@H](C(=O)N[C@@H](CCC(N)=O)C(=O)O)[C@@H](C)O)[C@@H](C)CC)C(C)C)[C@@H](C)CC [GIP, Gastric Inhibitory Polypeptide]					
